# Source: patent US20140235616A1, “PYRAZOLOQUINOLINONE DERIVATIVES, PREPARATION THEREOF AND THERAPEUTIC USE THEREOF” (SANOFI, priority 2011, published 2014)
# Target: T1, human MetAP2 (Homo sapiens, UniProt P50579)
# T1 construct: made in house; host or cells: Sf9 insect cells (baculovirus)
# Assay: MetAP2 enzymatic screening test (isolated enzyme, Met-Pro-Arg-pNa substrate, absorbance at 405 nm)
# Format: biochemical
# Conditions: read-out: % inhibition hMETAP2 at 100 nM
# Description: The compounds according to the invention underwent biochemical studies in order to determine their capacity to inhibit the enzyme methionine-aminopeptidase2 (enzymatic test on isolated enzyme).
# MetAP2 Enzymatic Screening Test
# For the enzymatic test, human MetAP2 protein was obtained from a culture supernatant of insect cells (sf9) infected with MetAP2 recombinant baculovirus.
# Before performing the experiment, dialysis of the MetAP2 supernatant is performed over 24 hours at 4° C. in a buffer (10 mM Hepes, 100 mM KCl, 10% glycerol, pH 7.4) in the presence of EDTA (1 mM) over the first 12 hours.
# The dialysis supernatant is recovered and manganese, used as cofactor, is added to a final concentration of 300 μM.
# The enzymatic test is a test in two steps.
# Consequently, the second step consists in reacting the peptides cleaved in the preceding step with a second peptidase in order to release the chromophore.
# T1 sequence (P50579 whole entry): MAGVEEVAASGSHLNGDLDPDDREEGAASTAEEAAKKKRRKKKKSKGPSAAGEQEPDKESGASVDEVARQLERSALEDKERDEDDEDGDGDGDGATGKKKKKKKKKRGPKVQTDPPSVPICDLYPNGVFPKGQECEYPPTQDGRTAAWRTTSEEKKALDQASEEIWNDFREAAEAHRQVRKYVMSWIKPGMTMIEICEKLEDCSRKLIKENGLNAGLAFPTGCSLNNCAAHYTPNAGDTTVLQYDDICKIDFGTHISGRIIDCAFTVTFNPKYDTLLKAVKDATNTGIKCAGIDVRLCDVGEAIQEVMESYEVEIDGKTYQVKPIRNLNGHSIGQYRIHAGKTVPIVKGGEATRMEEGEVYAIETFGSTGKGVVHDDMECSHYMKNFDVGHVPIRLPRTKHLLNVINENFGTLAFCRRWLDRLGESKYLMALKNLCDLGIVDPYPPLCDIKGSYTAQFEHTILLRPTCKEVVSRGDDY
row,Compound,inhibition at 0.1 µM [%]
1,"CCn1c(=O)c2cn[nH]c2c2ccc(-c3ccc(C(=O)NCCCN(C)C)cc3)cc21 [Compound 9, N-(3-dimethylaminopropyl)-4-(5-ethyl-4-oxo-4,5-dihydro-1H-pyrazolo[4,3-c]quinolin-7-yl)benzamide]",78
2,"CCn1c(=O)c2cn[nH]c2c2ccc(-c3ccc(C(=O)N4CCNCC4)cc3)cc21 [Compound 18, 5-ethyl-7-[4-(piperazine-1-carbonyl)phenyl]-1,5-dihydro-4H-pyrazolo[4,3-c]quinolin-4-one]",72
3,"CCn1c(=O)c2cn[nH]c2c2ccc(-c3ccc(C(=O)N4CCN(C)CC4)cc3)cc21 [Compound 21, 5-ethyl-7-[4-(4-methylpiperazine-1-carbonyl)phenyl]-1,5-dihydro-4H-pyrazolo[4,3-c]quinolin-4-one]",70
4,"COc1ccc(-c2ccc3c4[nH]ncc4c(=O)n(CC(F)(F)F)c3c2)c(C)n1 [Compound 138, 7-(6-methoxy-2-methylpyrid-3-yl)-5-(2,2,2-trifluoroethyl)-1,5-dihydro-4H-pyrazolo[4,3-c]quinolin-4-one]",44
5,"CCn1c(=O)c2cn[nH]c2c2ccc(-c3cc(OC)ccc3F)cc21 [Compound 28, 5-ethyl-7-(2-fluoro-5-methoxyphenyl)-1,5-dihydro-4H-pyrazolo[4,3-c]quinolin-4-one]",67
6,"CCn1c(=O)c2cn[nH]c2c2ccc(-c3ccc(CNC(C)=O)cc3)cc21 [Compound 38, N-[4-(5-ethyl-4-oxo-4,5-dihydro-1H-pyrazolo[4,3-c]quinolin-7-yl)benzyl]acetamide]",60

# Further lines, results first:
row,inhibition at 0.1 µM [%],Compound
1,41,"CC(=O)NCc1ccccc1-c1ccc2c3[nH]ncc3c(=O)n(CC(F)(F)F)c2c1 [Compound 151, N-{2-[4-oxo-5-(2,2,2-trifluoroethyl)-4,5-dihydro-1H-pyrazolo[4,3-c]quinolin-7-yl]benzyl}acetamide]"
2,43,"COC(=O)Cc1ccccc1-c1ccc2c3[nH]ncc3c(=O)n(CC(F)(F)F)c2c1 [Compound 144, methyl {2-[4-oxo-5-(2,2,2-trifluoroethyl)-4,5-dihydro-1H-pyrazolo[4,3-c]quinolin-7-yl]phenyl}acetate]"
3,40,"Cc1ccnc(-c2ccc3c4[nH]ncc4c(=O)n(CC(F)(F)F)c3c2)c1 [Compound 187, 7-(4-methylpyrid-2-yl)-5-(2,2,2-trifluoroethyl)-1,5-dihydro-4H-pyrazolo[4,3-c]quinolin-4-one]"
4,42,"COc1ccnc(-c2ccc3c4[nH]ncc4c(=O)n(CC(F)(F)F)c3c2)c1 [Compound 145, 7-(4-methoxypyrid-2-yl)-5-(2,2,2-trifluoroethyl)-1,5-dihydro-4H-pyrazolo[4,3-c]quinolin-4-one]"
5,44,"O=C(c1ccc(-c2ccc3c4[nH]ncc4c(=O)n(CC(F)(F)F)c3c2)cn1)N1CCOCC1 [Compound 141, 7-[6-(morpholine-4-carbonyl)pyrid-3-yl]-5-(2,2,2-trifluoroethyl)-1,5-dihydro-4H-pyrazolo[4,3-c]quinolin-4-one]"
6,42,"COc1ncc(-c2ccc3c4[nH]ncc4c(=O)n(CC(F)(F)F)c3c2)c(N(C)C)n1 [Compound 149, 7-(4-dimethylamino-2-methoxypyrimidin-5-yl)-5-(2,2,2-trifluoroethyl)-1,5-dihydro-4H-pyrazolo[4,3-c]quinolin-4-one]"
7,38,"CC(C)c1ncncc1-c1ccc2c3[nH]ncc3c(=O)n(CC(F)(F)F)c2c1 [Compound 162, 7-(4-isopropylpyrimidin-5-yl)-5-(2,2,2-trifluoroethyl)-1,5-dihydro-4H-pyrazolo[4,3-c]quinolin-4-one]"
8,41,"CN(C)CCOc1cccc(-c2ccc3c4[nH]ncc4c(=O)n(CC(F)(F)F)c3c2)c1 [Compound 155, 7-[3-(2-dimethylaminoethoxy)phenyl]-5-(2,2,2-trifluoroethyl)-1,5-dihydro-4H-pyrazolo[4,3-c]quinolin-4-one]"
